Measurements reported in patent US20140187548A1, “6 SUBSTITUTED IMIDAZOPYRAZINES FOR USE AS MPS-1 AND TKK INHIBITORS IN THE TREATMENT OF HYPERPROLIFERATIVE DISORDERS” (BAYER INTELLECTUAL PROPERTY GMBH, priority 2010, published 2014).

molecular target: T1, human kinase Mps-1 (Homo sapiens, UniProt P33981); test: Mps-1 kinase assay (TR-FRET); assay type: biochemical; conditions: N-terminally GST-tagged human full length recombinant Mps-1; 10 μM ATP; 1 μM peptide substrate; 15 min pre-incubation; 60 min at 22° C.
T1 construct: N-terminally GST-tagged human full length recombinant Mps-1 kinase; GST (N); purchased Invitrogen, Karslruhe, Germany PV4071
T1 sequence (P33981 1-857): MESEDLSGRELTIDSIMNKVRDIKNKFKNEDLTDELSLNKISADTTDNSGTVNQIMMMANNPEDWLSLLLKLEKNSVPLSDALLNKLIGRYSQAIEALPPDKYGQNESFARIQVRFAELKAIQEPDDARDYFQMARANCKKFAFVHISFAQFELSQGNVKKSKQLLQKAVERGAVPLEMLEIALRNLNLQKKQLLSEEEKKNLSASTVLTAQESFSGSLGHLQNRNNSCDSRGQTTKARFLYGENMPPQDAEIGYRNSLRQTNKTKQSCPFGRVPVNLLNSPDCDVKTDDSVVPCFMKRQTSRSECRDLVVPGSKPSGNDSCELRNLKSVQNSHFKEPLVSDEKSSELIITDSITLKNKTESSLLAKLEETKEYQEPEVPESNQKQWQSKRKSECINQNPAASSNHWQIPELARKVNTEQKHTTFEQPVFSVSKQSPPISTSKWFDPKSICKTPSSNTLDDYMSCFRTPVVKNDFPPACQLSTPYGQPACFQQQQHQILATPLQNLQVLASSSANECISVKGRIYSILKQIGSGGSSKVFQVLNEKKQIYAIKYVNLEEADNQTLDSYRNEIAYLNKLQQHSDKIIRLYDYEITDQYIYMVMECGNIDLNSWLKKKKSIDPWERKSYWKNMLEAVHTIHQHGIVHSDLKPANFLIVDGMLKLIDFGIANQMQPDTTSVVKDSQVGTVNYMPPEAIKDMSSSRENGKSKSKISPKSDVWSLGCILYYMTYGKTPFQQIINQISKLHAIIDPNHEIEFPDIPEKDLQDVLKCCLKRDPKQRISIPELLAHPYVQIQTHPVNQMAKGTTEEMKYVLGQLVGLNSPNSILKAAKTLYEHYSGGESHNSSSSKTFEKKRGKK
Summary of the method: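 N-terminally GST-tagged full-length recombinant human Mps-1, about 1 nM final, phosphorylates a biotinylated peptide. Product detected by TR-FRET from Eu-anti-phospho-Ser/Thr antibody to streptavidin-XLent after 1 h at 22° C.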

Row | Compound | IC50 [nM]
1 | O=C(NC1CC1)c1ccc(-c2cnc3c(NCC4CCCO4)nc(-c4ccc(F)cc4)cn23)cc1Cl (centres unmarked) [Example 1-103, 2-chloro-N-cyclopropyl-4-{6-(4-fluorophenyl)-8-[(tetrahydrofuran-2-ylmethyl)amino]imidazo [1,2-a]pyrazin-3-yl} benzamide] | 28.7
2 | CC(C)CNc1nc(-c2ccccc2C(F)(F)F)cn2c(-c3ccc(C(=O)NC4CC4)cc3)cnc12 [Example 1-43, N-cyclopropyl-4-{8-[(2-methylpropyl)amino]-6-[2-(trifluoromethyl)phenyl]imidazo[1,2-a]pyrazin-3-yl}benzamide] | 16.3
3 | Cc1cn2c(-c3ccc(C(=O)NC4CC4)cc3)cnc2c(NCC(C)C)n1 [Example 1-88, N-cyclopropyl-4-{6-methyl-8-[(2-methyl-propyl)amino]imidazo [1,2-a]pyrazin-3-yl} benzamide] | 11.9
4 | CC(=O)c1cccc(-c2cn3c(-c4ccc(C(=O)NC5CC5)cc4)cnc3c(NCC(C)C)n2)c1 [Example 1-46, 4-{6-(3-acetylphenyl)-8-[(2-methylpropyl)amino]imidazo[1,2-a]pyrazin-3-yl}-N-cyclo-propylbenzamide] | 2.3
5 | Cc1cc(-c2cnc3c(NCCC(F)(F)F)nc(-c4ccc(F)c(CO)c4)cn23)ccc1C(=O)NC1CC1 [Example 1-124, N-cyclopropyl-4-{6-[4-fluoro-3-(hydroxymethyl)phenyl]-8-[(3,3,3-tri-fluoropropyl)amino]imidazo[1,2-a]pyrazin-3-yl}-2-methylbenzamide] | 1.1
6 | Cc1ccc(-c2cn3c(-c4ccc(C(=O)NC5CC5)cc4)cnc3c(NCC(C)C)n2)cc1 [Example 1-7, N-cyclopropyl-4-{6-(4-methylphenyl)-8-[(2-methylpropyl)amino]imidazo[1,2-a]pyrazin-3-yl}benzamide] | 5.7
7 | CC(C)CNc1nc(-c2ccccc2CO)cn2c(-c3ccc(C(=O)NC4CC4)c(F)c3)cnc12 [Example 1-111, N-cyclopropyl-2-fluoro-4-{6-[2-(hydroxymethyl)phenyl]-8-[(2-methyl-propyl)amino]imidazo [1,2-a]pyrazin-3-yl} benzamide] | 3
8 | CC(=O)c1ccc(-c2cn3c(-c4ccc(C(=O)NC5CC5)cc4)cnc3c(NCC(C)C)n2)cc1 [Example 1-48, 4-{6-(4-acetylphenyl)-8-[(2-methylpropyl)amino]imidazo[1,2-a]pyrazin-3-yl}-N-cyclopropyl-benzamide] | 1.1
9 | CC(C)CNc1nc(-c2cccc(NS(C)(=O)=O)c2)cn2c(-c3ccc(C(=O)NC4CC4)cc3)cnc12 [Example 1-15, N-cyclopropyl-4-(8-[(2-methylpropyl)amino]-6-{3-[(methylsulfonyl)amino]phenyl}imidazo [1,2-a]pyrazin-3-yl) benzamide] | 1.8

Second part, the compound after the results:

Row | IC50 [nM] | Compound
10 | 4.8 | Cc1cc(-c2cnc3c(NCCC(C)CO)nc(-c4ccc(F)cc4)cn23)ccc1C(=O)NC1CC1 (centres unmarked) [Example 10-5, N-cyclopropyl-4-{6-(4-fluorophenyl)-8-[(4-hydroxy-3-methylbutyl)amino]imidazo[1,2-a]pyrazin-3-yl}-2-methyl-benzamide]
11 | 26.2 | CC(C)CNc1nc(-c2ccccc2)c(Br)n2c(-c3ccc(C(=O)NC4CC4)cc3)cnc12 [Example 4-1, 4-{5-bromo-8-[(2-methylpropyl)amino]-6-phenylimidazo[1,2-a]pyrazin-3-yl}-N-cyclopropylbenzamide]
12 | 3.5 | COCCCNc1nc(-c2ccccc2)cn2c(-c3ccc(C(=O)NC4CC4)cc3)cnc12 [Example 2-46, N-cyclopropyl-4-{8-[(3-methoxypropyl)amino]-6-phenylimidazo[1,2-a]pyrazin-3-yl}benzamide]
13 | 54.8 | NCCNc1nc(-c2ccccc2)cn2c(-c3ccc(C(=O)NC4CC4)cc3)cnc12 [Example 2-69, 4-{8-[(2-Aminoethyl)amino]-6-phenylimidazo[1,2-a]pyrazin-3-yl}-N-cyclopropylbenzamide]
14 | 8 | O=C(NC1CC1)c1ccc(-c2cnc3c(NCCc4cccnc4)nc(-c4ccccc4)cn23)cc1 [Example 2-50, N-cyclopropyl-4-(6-phenyl-8-{[2-(pyridin-3-yl)ethyl]amino}imidazo[1,2-a]pyrazin-3-yl) benzamide]
15 | 31.6 | O=C(NC1CC1)c1ccc(-c2cnc3c(NCCN4CCCCC4)nc(-c4ccccc4)cn23)cc1 [Example 2-11, N-cyclopropyl-4-(6-phenyl-8-{[2-(piperidin-1-yl)ethyl]amino}imidazo[1,2-a]pyrazin-3-yl)benzamide]
16 | 9.1 | Cc1cc(-c2cnc3c(NCC4CCCO4)nc(-c4ccc(F)cc4)cn23)ccc1C(=O)NC1CC1 (centres unmarked) [Example 10-2, N-cyclopropyl-4-{6-(4-fluorophenyl)-8-[(tetrahydrofuran-2-ylmethyl)amino]imidazo [1,2-a]pyrazin-3-yl}-2-methylbenzamide]
17 | 12.4 | O=C(NC1CC1)c1ccc(-c2cnc3c(NCC4CCC(C(F)(F)F)CC4)nc(-c4ccccc4)cn23)cc1 (mixture of isomers) [Example 2-86, N-cyclopropyl-4-[6-phenyl-8-([[4-(trifluoromethyl)cyclohexyl]methyl]amino)imidazo[1,2-a]pyrazin-3-yl]benzamide]
18 | 6.9 | O=C(NC1CC1)c1ccc(-c2cnc3c(NCCCN4CCOCC4)nc(-c4ccccc4)cn23)cc1 [Example 2-3, N-cyclopropyl-4-(8-{[3-(morpholin-4-yl)propyl]amino}-6-phenylimidazo[1,2-a]pyrazin-3-yl)benzamide]
19 | 2.9 | CCC(CNc1nc(-c2ccccc2)cn2c(-c3ccc(C(=O)NC4CC4)cc3)cnc12)OC (centres unmarked) [Example 2-58, N-cyclopropyl-4-{8-[(2-methoxybutyl)amino]-6-phenylimidazo[1,2-a]pyrazin-3-yl}benzamide]
20 | 1.1 | O=C(NC1CC1)c1ccc(-c2cnc3c(NCCCCO)nc(-c4ccccc4)cn23)cc1 [Example 2-78, N-cyclopropyl-4-{8-[(4-hydroxybutyl)amino]-6-phenylimidazo[1,2-a]pyrazin-3-yl}benzamide]
